The values that follow come from PubChem BioAssay AID1918936 (Molecular Pharmacology Branch, DTP, NCI, 2023).

The subject of the assay is 349418-098-R-PDC complex spheroid viability. Nature of the assay: Anticancer human tumor 349418-098-R-PDC patient-derived lung adenocarcinoma cell line growth inhibition. The note with it: for viability, T/C: stronger effect = lower value. A digest of the protocol:
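Multicellular complex spheroids of tumor cells with human endothelial cells (HUVEC) and mesenchymal stem cells; the LSD1 inhibitor iadademstat was combined with standard-of-care or investigational agents. Top concentration at or near clinical Cmax, half-log dilutions; final DMSO ≤0.25%.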

[1] abbreviates: curve of first compound, second compound 0.1 µM.
[2] abbreviates: curve of first compound, second compound 0.316 µM.
Where [3] appears, read: curve of first compound, second compound 1 µM.
Where [4] appears, read: curve of first compound, second compound 3.16 µM.
The mark [5] stands for this setting: curve of first compound, second compound 10 µM.
Where [6] appears, read: second compound 0.1 µM, first compound 0.000316 µM.
[7] abbreviates: second compound 0.1 µM, first compound 0.001 µM.
Setting [8] is: second compound 0.1 µM, first compound 0.00316 µM.
[9] abbreviates: second compound 0.1 µM, first compound 0.01 µM.
Where [10] appears, read: second compound 0.1 µM, first compound 0.0316 µM.
The mark [11] stands for this setting: second compound 0.1 µM, first compound 0.1 µM.
Setting [12] is: second compound 0.316 µM, first compound 0.000316 µM.
[13] abbreviates: second compound 0.316 µM, first compound 0.001 µM.
[14] abbreviates: second compound 0.316 µM, first compound 0.00316 µM.
[15] abbreviates: second compound 0.316 µM, first compound 0.01 µM.
[16] abbreviates: second compound 0.316 µM, first compound 0.0316 µM.
The mark [17] stands for this setting: second compound 0.316 µM, first compound 0.1 µM.
[18] abbreviates: second compound 1 µM, first compound 0.000316 µM.
Setting [19] is: second compound 1 µM, first compound 0.001 µM.
[20] abbreviates: second compound 1 µM, first compound 0.00316 µM.
Setting [21] is: second compound 1 µM, first compound 0.01 µM.
Setting [22] is: second compound 1 µM, first compound 0.0316 µM.
The mark [23] stands for this setting: second compound 1 µM, first compound 0.1 µM.
[24] abbreviates: second compound 3.16 µM, first compound 0.000316 µM.
Where [25] appears, read: second compound 3.16 µM, first compound 0.001 µM.
[26] abbreviates: second compound 3.16 µM, first compound 0.00316 µM.
The mark [27] stands for this setting: second compound 3.16 µM, first compound 0.01 µM.
The mark [28] stands for this setting: second compound 3.16 µM, first compound 0.0316 µM.
[29] abbreviates: second compound 3.16 µM, first compound 0.1 µM.
[30] abbreviates: second compound 10 µM, first compound 0.000316 µM.
Where [31] appears, read: second compound 10 µM, first compound 0.001 µM.
Where [32] appears, read: second compound 10 µM, first compound 0.00316 µM.
Where [33] appears, read: second compound 10 µM, first compound 0.01 µM.
Where [34] appears, read: second compound 10 µM, first compound 0.0316 µM.
Setting [35] is: second compound 10 µM, first compound 0.1 µM.

Several values for one entry are separate records, joined by “and”; a condition that tells them apart may be missing. Equal values may be shown once.
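Also: spheroids exposed to agents for seven days before readout.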
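For viability, T/C in this document: 100% = DMSO vehicle control wells.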

Usually IC50 stands for the concentration that gives 50% inhibition. Usually viability, T/C stands for the result in the treated group divided by that in the control group, in per cent. In the case of `CC(C)CC(NC(=O)CNC(=O)c1cc(Cl)ccc1Cl)B1OC(=O)CC(CC(=O)O)(C(=O)O)O1` (stereo unspecified) + NC1CCC(NC2CC2c2ccccc2)CC1, the IC50 by setting is: under setting [1], 0.62 nM; under setting [2], 0.661 nM; under setting [3], 0.681 nM; under setting [4], 0.596 nM; under setting [5], 0.606 nM. The viability, T/C under setting [6] is 89.2%; the viability, T/C under setting [7] is 22%; the viability, T/C under setting [8] was 4.81%; the viability, T/C under setting [9] is 1.88%; the viability, T/C under setting [10] was 1.17%; the viability, T/C under setting [11] was 1.44%. Moreover, the viability, T/C under setting [12] was 97.2%; the viability, T/C under setting [13] was 23.5%; the viability, T/C under setting [14] was 4.46%; the viability, T/C under setting [15] is 1.83%; the viability, T/C under setting [16] was 1.73%; the viability, T/C under setting [17] was 1.09%. Besides, the viability, T/C under setting [18] was 96.5%; the viability, T/C under setting [19] is 26.8%; the viability, T/C under setting [20] was 4.37%; the viability, T/C under setting [21] is 1.55%; the viability, T/C under setting [22] is 1.3%; the viability, T/C under setting [23] is 0.81%. Moreover, the viability, T/C under setting [24] was 82.2%; the viability, T/C under setting [25] was 23.4%; the viability, T/C under setting [26] is 4.76%; the viability, T/C under setting [27] was 1.66%; the viability, T/C under setting [28] was 1.29%; the viability, T/C under setting [29] was 0.98%. Moreover, the viability, T/C was 90.5% under setting [30]; 18.7% under setting [31]; 4.32% under setting [32]; 1.66% under setting [33]; 1.03% under setting [34]; 0.65% under setting [35].
Take `Nc1ccn(C2OC(CO)C(O)C2(F)F)c(=O)n1` (stereo unspecified): the viability, T/C (compound 0.000949 µM) was 5.35% and 15%; the viability, T/C (compound 0.003 µM) was 5.18% and 4.23%; the viability, T/C (compound 0.00949 µM) is 4.99% and 4.4%; the viability, T/C (compound 0.03 µM) is 4% and 4.8%; the viability, T/C (compound 0.0949 µM) was 4.25% and 4.46%; the viability, T/C (compound 0.3 µM) is 4.05% and 4.24%. Also, the IC50 (curve of compound) is less than 0.949 nM.
On to `CC(C)CC(NC(=O)C(Cc1ccccc1)NC(=O)c1cnccn1)B(O)O` (stereo unspecified) + NC1CC1c1ccc(-c2cccc(O)c2)cc1, for which the IC50 under setting [1] was less than 0.316 nM; the half-maximal inhibitory concentration (IC50) under setting [2] is less than 0.316 nM; the IC50 under setting [3] is less than 0.316 nM; the IC50 under setting [4] is less than 0.316 nM; the IC50 under setting [5] was less than 0.316 nM. Also, the viability, T/C runs as follows: under setting [6], 2.67%; under setting [7], 1.51%; under setting [8], 1.31%; under setting [9], 0.5%; under setting [10], 0.51%; under setting [11], 0.69%. Moreover, the viability, T/C was 1.86% under setting [12]; 1.09% under setting [13]; 0.81% under setting [14]; 0.41% under setting [15]; 0.45% under setting [16]; 0.34% under setting [17]. The viability, T/C under setting [18] is 1.69%; the viability, T/C under setting [19] was 1.07%; the viability, T/C under setting [20] was 0.72%; the viability, T/C under setting [21] was 0.42%; the viability, T/C under setting [22] was 0.29%; the viability, T/C under setting [23] is 0.53%. Moreover, the viability, T/C is 1.62% under setting [24]; 0.92% under setting [25]; 0.86% under setting [26]; 1.06% under setting [27]; 0.37% under setting [28]; 0.41% under setting [29]. Further, the viability, T/C under setting [30] is 0.84%; the viability, T/C under setting [31] was 0.41%; the viability, T/C under setting [32] was 0.68%; the viability, T/C under setting [33] is 0.31%; the viability, T/C under setting [34] is 0.14%; the viability, T/C under setting [35] was 0.17%.
Regarding `CC[C@@]1(O)C(=O)OCc2c1cc1n(c2=O)Cc2cc3c(CN(C)C)c(O)ccc3nc2-1` + NC1CC1c1ccc(-c2cccc(O)c2)cc1, the IC50 is 4.97 nM under setting [1]; 4.86 nM under setting [2]; 4.78 nM under setting [3]; 4.69 nM under setting [4]; 3.8 nM under setting [5]. Also, the viability, T/C reads like this: under setting [6], 115%; under setting [7], 108%; under setting [8], 74.8%; under setting [9], 11.4%; under setting [10], 5.55%; under setting [11], 3.01%. The viability, T/C under setting [12] was 120%; the viability, T/C under setting [13] was 116%; the viability, T/C under setting [14] was 74%; the viability, T/C under setting [15] is 9.75%; the viability, T/C under setting [16] is 4.91%; the viability, T/C under setting [17] is 2.78%. For the same compound, the viability, T/C was 118% under setting [18]; 116% under setting [19]; 72.4% under setting [20]; 10.1% under setting [21]; 5.15% under setting [22]; 2.6% under setting [23]. Besides, the viability, T/C is, setting by setting: under setting [24], 122%; under setting [25], 112%; under setting [26], 70.8%; under setting [27], 10.1%; under setting [28], 5.39%; under setting [29], 2.8%. For the same compound, the viability, T/C is 91.9% under setting [30]; 90.1% under setting [31]; 57.8% under setting [32]; 8.84% under setting [33]; 5.04% under setting [34]; 2.95% under setting [35].
Regarding `COc1cc(Nc2ncc3c(n2)-c2ccc(Cl)cc2C(c2c(F)cccc2OC)=NC3)ccc1C(=O)O`, the viability, T/C was 81.5% and 59.7% (compound 0.00316 µM); 63.8% and 43.1% (compound 0.01 µM); 35.4% and 41.2% (compound 0.0316 µM); 40.7% and 45.3% (compound 0.1 µM); 31.1% and 40.4% (compound 0.316 µM); 31.7% and 39.1% (compound 1 µM). Besides, the IC50 (curve of compound) was 17.5 nM and 6.2 nM.
Take `CCc1c2c(nc3ccc(O)cc13)-c1cc3c(c(=O)n1C2)COC(=O)[C@]3(O)CC`: the viability, T/C reads like this: (compound 0.000949 µM) 4.32% and 3.69%; (compound 0.003 µM) 2.63% and 2.24%; (compound 0.00949 µM) 1.82% and 1.28%; (compound 0.03 µM) 1.29% and 1.41%; (compound 0.0949 µM) 1.48% and 2.01%; (compound 0.3 µM) 1.75% and 2.19%. Also, where the note is “curve of compound”, the IC50 is less than 0.949 nM.
